Values of other authors, collected in US20070066584A1, “Amido compounds and their use as pharmaceuticals” (priority 2005, published 2007).

Target: T1, 11βHSD1 (Homo sapiens, UniProt P28845)
T1 construct: host or cells: healthy volunteers (eye; non-pigmented epithelial cells), in vivo
Conditions: healthy volunteers; after seven days of carbenoxolone treatment

T1 sequence (P28845 whole entry): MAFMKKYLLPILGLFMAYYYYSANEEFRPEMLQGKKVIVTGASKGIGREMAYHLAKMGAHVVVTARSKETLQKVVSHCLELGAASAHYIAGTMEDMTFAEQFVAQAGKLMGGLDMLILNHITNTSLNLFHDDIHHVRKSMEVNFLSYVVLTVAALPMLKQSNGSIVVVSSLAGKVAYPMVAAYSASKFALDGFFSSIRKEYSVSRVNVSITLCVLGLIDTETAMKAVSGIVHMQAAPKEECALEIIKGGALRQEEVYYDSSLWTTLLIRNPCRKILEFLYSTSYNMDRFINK

CC1(C)[C@@H](OC(=O)CCC(=O)O)CC[C@]2(C)[C@H]3C(=O)C=C4[C@@H]5C[C@@](C)(C(=O)O)CC[C@]5(C)CC[C@@]4(C)[C@]3(C)CC[C@@H]12 [carbenoxolone]
IOP reduced: 18%
